Several values for one entry are separate records, joined by “and”; a condition that tells them apart may be missing. Equal entries are not always repeated. Entries after “also recorded” stand apart in the source; their conditions may differ.
Key:
[1] = test system: Human Subject Diagnosed with Fibromyalgia; test: Patient history of prior treatment of the fibromyalgia subjects; details: for pain relief, prescription analgesics / side effects, prescription analgesics: Examples 1-3, codeine at high dose; for pain relief, OTC analgesics: Examples 1-3, codeine at low dose
Description: (§1) Patient History of Prior Treatment: A patient history was taken. Prior treatments targeting pain relief were as follows.
Prior treatments targeting other symptoms included the following. The subject had taken tegaserod for irritable bowel syndrome. Additional prior therapies included sertraline for depression, and zolpidem for insomnia. The subject has also taken proclorperazine for dizziness.
Prior treatments targeting other symptoms included the following. The subject had taken tegaserod for irritable bowel syndrome. Additional prior therapies included sertraline for depression, and zolpidem for insomnia.
as §1
Prior treatments targeting other symptoms included the following. The subject had taken tegaserod for irritable bowel syndrome. Additional prior therapies included zolpidem, midazolam, zopiclone, and chlorpheniramine for insomnia.

pyruvate dehydrogenase = details: Kantor et al., Circ. Res. 2000; cited from earlier work
[2] = test system: long-chain fatty acid oxidation; details: Kantor et al., Circ. Res. 2000; cited from earlier work
glucose oxidation = details: Kantor et al., Circ. Res. 2000; cited from earlier work
[3] = target: long chain 3-ketoacyl CoA thiolase (Rattus norvegicus, UniProt Q60587); details: Kantor et al., Circ. Res. 2000; cited from earlier work
long chain 3-ketoacyl CoA thiolase, sequence (Q60587 35-475): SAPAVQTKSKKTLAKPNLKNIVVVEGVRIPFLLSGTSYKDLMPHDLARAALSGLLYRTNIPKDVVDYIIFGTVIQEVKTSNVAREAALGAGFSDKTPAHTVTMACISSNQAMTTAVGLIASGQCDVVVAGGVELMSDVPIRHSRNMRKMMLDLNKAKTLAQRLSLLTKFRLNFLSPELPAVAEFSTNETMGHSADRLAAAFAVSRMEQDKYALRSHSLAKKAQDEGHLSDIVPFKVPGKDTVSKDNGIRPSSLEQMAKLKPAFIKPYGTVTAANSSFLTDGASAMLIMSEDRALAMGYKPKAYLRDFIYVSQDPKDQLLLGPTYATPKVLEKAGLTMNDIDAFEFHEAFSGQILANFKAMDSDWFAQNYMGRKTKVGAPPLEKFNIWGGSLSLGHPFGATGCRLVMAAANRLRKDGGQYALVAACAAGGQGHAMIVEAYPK
long chain 3-ketoacyl CoA thiolase, sequence (Q64428 37-763 partner): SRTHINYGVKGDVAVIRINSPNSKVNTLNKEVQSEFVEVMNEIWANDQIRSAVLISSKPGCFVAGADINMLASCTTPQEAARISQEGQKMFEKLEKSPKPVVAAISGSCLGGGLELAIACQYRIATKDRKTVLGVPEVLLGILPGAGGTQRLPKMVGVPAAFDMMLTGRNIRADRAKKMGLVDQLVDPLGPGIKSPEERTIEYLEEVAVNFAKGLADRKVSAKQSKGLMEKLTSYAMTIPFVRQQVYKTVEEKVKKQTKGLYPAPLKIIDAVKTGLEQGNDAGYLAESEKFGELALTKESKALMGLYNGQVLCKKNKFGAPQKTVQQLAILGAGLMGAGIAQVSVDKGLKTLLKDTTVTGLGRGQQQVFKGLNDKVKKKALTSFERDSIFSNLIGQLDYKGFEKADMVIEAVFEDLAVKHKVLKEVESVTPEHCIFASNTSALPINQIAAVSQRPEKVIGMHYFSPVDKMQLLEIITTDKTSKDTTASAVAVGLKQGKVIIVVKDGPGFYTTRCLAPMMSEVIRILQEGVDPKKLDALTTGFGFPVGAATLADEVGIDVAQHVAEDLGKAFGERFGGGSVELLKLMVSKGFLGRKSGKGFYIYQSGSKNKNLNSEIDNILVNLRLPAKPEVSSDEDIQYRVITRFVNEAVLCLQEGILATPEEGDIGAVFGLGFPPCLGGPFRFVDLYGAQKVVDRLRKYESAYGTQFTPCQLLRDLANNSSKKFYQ

[4] = test system: Human Subject Diagnosed with Fibromyalgia; test: Treatment of human subjects diagnosed with fibromyalgia with trimetazidine (Vastarel MR 35 mg orally, twice daily); assay type: in vivo; details: for reduction in the widespread pain: subject-reported
Protocol: (§2) A person presented with long-standing complaints (15 years) of widespread pain—headaches, upper and lower back pain, neck pain, elbow and knee pain bilaterally, calf pain bilaterally and jaw pain. General non-specific symptoms were fatigue, symptoms of irritable bowel syndrome (constipation-type), insomnia, cognitive and memory impairment, morning stiffness, dizziness, irritability and depression.
Treatment Regime: The subject was administered trimetazidine (modified release formulation, Vastarel® MR), 35 mg orally, twice daily, originally for treatment of their cardiac condition.
as §2, with “(10” for “(15”, “hip” for “elbow and knee”, “knee” for “calf”, “stiffness,” for “stiffness, dizziness, irritability”
Treatment Regime: The subject was administered trimetazidine (modified release formulation, Vastarel® MR), 35 mg orally, twice daily.
A person presented with a 5 year history of complaints of widespread pain headaches, upper and lower back pain, neck pain, hip pain bilaterally and knee pain bilaterally. General non-specific symptoms were fatigue, symptoms of irritable bowel syndrome (constipation-type), insomnia, morning stiffness and emotional liability.
The following is a synopsis of the clinical response of each of eight (8) patients diagnosed with FMS, each of whom received treatment with trimetazidine MR (Vastarel® MR), 35 mg orally, twice daily, for a period of at least four (4) weeks

[5] = Example 1, after six (6) months of continuous use
[6] = Example 4, individual FMS patients, Short Term i.e. within 72 hours
[7] = Example 4, individual patients, Medium Term i.e. over four (4) weeks
[8] = Example 4, individual patients, within 72 hours
[9] = Example 4, person five, within 72 hours
[10] = Example 4, person four, within 72 hours
[11] = Example 4, person one, within 72 hours
[12] = Examples 2 and 3, after four (4) months of continuous use
[13] = Examples 2 and 3, within 24 hours

## CCOC(=O)C1(c2ccccc2)CCN(C)CC1 [meperidine]
[1]
  pain relief, prescription analgesics: mild to moderate and very temporary relief
  side effects, prescription analgesics: frequently accompanied by unpleasant side effects

## COc1ccc2c3c1O[C@H]1[C@@H](O)C=C[C@H]4[C@@H](C2)N(C)CC[C@@]341 [codeine]
[1]
  pain relief, prescription analgesics: mild to moderate and very temporary relief
  side effects, prescription analgesics: frequently accompanied by unpleasant side effects
  pain relief, OTC analgesics: no pain relief whatsoever; also recorded: negligible pain relief

## CC(=O)Nc1ccc(O)cc1 [paracetamol]
[1]
  pain relief, OTC analgesics: no pain relief whatsoever; also recorded: negligible pain relief

## COc1cccc(C2(O)CCCCC2CN(C)C)c1 (centres unmarked) [tramadol]
[1]
  pain relief, prescription analgesics: mild to moderate and very temporary relief
  side effects, prescription analgesics: frequently accompanied by unpleasant side effects

## CCN(CC)CC(=O)Nc1c(C)cccc1C [lidocaine]
[1]; Examples 1 and 2
  localized pain relief, trigger point injections: the best localized pain relief

## COc1ccc(CN2CCNCC2)c(OC)c1OC [trimetazidine, 1-(2,3,4-trimethyloxybenzyl)piperazine]
Pyruvate dehydrogenase
  levels of pyruvate dehydrogenase: increased levels
[2]
  long-chain fatty acid oxidation: inhibits
Glucose oxidation
  glucose oxidation: stimulates
[3]
  activity of long chain 3-ketoacyl CoA thiolase: decreased activity
[4]; Example 1, person, 35 mg orally twice daily
  time at which benefits were first noticed after commencing therapy: ≤ 24 h
[4]; Example 1, person, 35 mg orally twice daily, within 72 hours of starting treatment
  improvement in all symptoms and signs of fibromyalgia: vast improvement
[4]; Example 1, person, within 72 hours
  reduction in the widespread pain: 90%
[4]; [5]
  episodes of pain at trigger points at follow-up: infrequent
  quality of life at follow-up: same marked improvement
[4]; Example 1, within 72 hours
  clarity of thoughts: markedly increased
  energy levels: very significantly increased
  level of irritability: markedly reduced
  mood: very improved
  regularity of bowel habits: markedly improved
  residual pain: minimal residual pain reported at the left medial knee
  short and long term memory: improvement
  sleep patterns: very significantly improved
[4]; Example 2, within 24 hours
  clarity of thoughts: markedly increased
  short and long term memory: improvement
[4]; [6]
  reduction in widespread pain: 90% reduction in
  reduction in widespread pain and trigger point pain: 90% reduction in
[4]; Example 4, individual patients
  affect (EXAMINATION FINDINGS; patient: affect and energy levels): markedly improved
  resolution of trigger point tenderness (EXAMINATION FINDINGS): Sustained
[4]; [7]
  Residual symptoms: include mild acid; also recorded: infrequent headaches; also recorded: insomnia; also recorded: episodes of joint
  sense of well-being: increased sense of
  specific complaints: symptoms with no
[4]; [8]
  Energetic feeling: Energetic feeling
  Nausea (patient: Nausea and Vomiting): Absence of Nausea
  alertness and clarity of thinking: Increased alertness
  dizziness/dizzy spells: Infrequent dizzy; also recorded: Absence of
  improved mood and concentration: Significantly
  improved mood and memory: Significantly
  reduction in feeling of generalized tightness and stiffness of muscles: 90% reduction in (2×) and 90% reduction of
  sleep: Consistent restful
[4]; Example 4, person five
  improved energy levels (EXAMINATION FINDINGS): Markedly
[4]; [9]
  reduction in irritability: 90% reduction in
  reduction in symptoms of Irritable Bowel Syndrome: 90% reduction in
[4]; [10]
  Memory: Improved Memory
  Nervousness: No Nervousness
[4]; Example 4, person one
  improvement in physical appearance (EXAMINATION FINDINGS): obvious marked
[4]; Example 4, person one, after four (4) weeks of daily use
  increase in energy levels: particular a sustained
[4]; [11]
  Chest Pain: Absence of Chest
  symptoms of Irritable Bowel Syndrome: Markedly reduced
[4]; Example 4, person three, after four (4) months of daily use
  sustained improvement of symptoms: 95% sustained
[4]; Example 4, person three, within 72 hours
  reduction in IBS and Acid Reflux Symptoms: 90% reduction in
[4]; Example 4, person two, after seven (7) weeks of daily use
  sustained improvement of symptoms: dramatic 95%
[4]; Example 4, person two, within 72 hours
  reduction in severity of Pre-Menstrual Cramps: 70% reduction in
[4]; Example 4, person, after five (5) weeks of daily use
  sustained improvement of all symptoms: 95% sustained
[4]; Example 4, person, after six (6) weeks of daily use
  sustained improvement of symptoms: (95%) sustained
[4]; Example 4, after four (4) weeks of daily use
  sustained improvement of symptoms: 95% sustained and 90% sustained
[4]; Examples 2 and 3, single female patients, 35 mg orally twice daily, within 24 hours of starting treatment
  improvement in all symptoms and signs of fibromyalgia: vast improvement
[4]; Examples 2 and 3, single female patients, within 24 hours
  reduction in the widespread pain: 95%
[4]; [12]
  quality of life at follow-up: same marked improvement
  relapse of symptoms: no relapse
[4]; [13]
  energy levels: very significantly increased
  mood: very improved
  regularity of bowel habits: markedly improved
  residual pain: minimal residual pain reported at the left hip; also recorded: residual mild headache
  sleep patterns: very significantly improved
[4]; FMS patients, course of treatment of at least four weeks
  reduction in widespread pain: remarkable and measurable reduction
[4]; all patients, follow-up at either four months or four weeks of treatment
  sustained or improved relief of widespread pain at follow-up: 90-95%
[4]; all patients, within 72 hours
  improvement of minor symptoms: significant improvement
[4]; eleven human subjects, each
  improvement in widespread pain: remarkable improvement
[4]; eleven human subjects, each, within 72 hours of commencement of treatment
  reduction in widespread pain, and where applicable, tender point pain: marked reduction
[4]; eleven human subjects, within 72 hours of commencing treatment
  reduction in widespread pain, on average: 90%

Source: US20100022551A1, “TRIMETAZIDINE FOR USE IN THE TREATMENT OF FIBROMYALGIA SYNDROME AND RELATED CONDITIONS” (Mintals Limited Consulco, Consulco House, priority 2006, published 2010)
